Assay: Tasting of high-purity Pinoquercetin + potassium chloride (KCl)
Assay type: in vivo
Settings: for bitterness of KCl is reduced by the product, share of responses: 14 responses
Method: The sensory evaluation of the samples was performed twice by a team of seven experienced assessors.

[1] = 10 μM (3.2 ppm) with 1.5% potassium chloride in spring water
[2] = 25 μM (8 ppm) with 1.5% potassium chloride in spring water
[3] = 50 μM (16 ppm) with 1.5% potassium chloride in spring water

## Cc1c(O)cc2oc(-c3ccc(O)c(O)c3)c(O)c(=O)c2c1O [Pinoquercetin]
1 μM (0.3 ppm) with 1.5% potassium chloride in spring water
  bitterness of KCl is reduced by the product, share of responses: product in 64% of responses average
[1]
  dominant flavour: sure dominant flavour: saltiness
  bitterness of KCl is reduced by the product, share of responses: product in 64% of responses average
[2]
  dominant flavour: flavour: saltiness
  bitterness of KCl is reduced by the product, share of responses: product in 64% of responses average
[3]
  dominant flavour: flavour: saltiness
  bitterness of KCl is reduced by the product, share of responses: product in 71% of responses average

Source: patent publication US20220151274A1, “PREPARATIONS WITH C-METHYL FLAVONOIDS” (BRAIN AG, priority 2018, published 2022)
